According to ChEMBL document CHEMBL1146065, “Structure-based optimization of azole antifungal agents by CoMFA, CoMSIA, and molecular docking” (2006):
≈ marks a conversion by molar mass, not a printed value.

Key:
Candida albicans = experiment: Antifungal activity against Candida albicans; format: functional
Trichophyton rubrum = experiment: Antifungal activity against Trichophyton rubrum; format: functional
Trichophyton violaceum = experiment: Antifungal activity against Trichophyton violaceum; format: functional
Fonsecaea pedrosoi = experiment: Antifungal activity against Fonsecaea pedrosoi; format: functional
Aspergillus fumigatus = experiment: Antifungal activity against Aspergillus fumigatus; format: functional
Epidermophyton floccosum = experiment: Antifungal activity against Epidermophyton floccosum; format: functional
Candida tropicalis = experiment: Antifungal activity against Candida tropicalis; format: functional
Sporothrix schenckii = experiment: Antifungal activity against Sporothrix schenckii; format: functional
Candida parapsilosis = experiment: Antifungal activity against Candida parapsilosis; format: functional; details: Lodderomyces parapsilosis
Cryptococcus neoformans = experiment: Antifungal activity against Cryptococcus neoformans; format: functional
Nannizzia gypsea = experiment: Antifungal activity against Microsporum gypseum; format: functional
Microsporum = experiment: Antifungal activity against Microsporum lanosum; format: functional
Trichophyton benhamiae = experiment: Antifungal activity against Trichophyton mentagrophytes; format: functional, Arthroderma benhamiae

**Q.** Which MIC80 (Candida albicans) does the source give for `CN(Cc1ccc(I)cc1)CC(O)(Cn1cncn1)c1ccc(F)cc1F` (stereo not given) here?
**A.** 0.032 µg/mL (≈ 0.0661 µM)

**Q.** And the MIC80 (Trichophyton rubrum)?
**A.** ≤ 0.125 µg/mL

**Q.** What about the MIC80 (Trichophyton violaceum) of the same compound?
**A.** < 0.0625 µg/mL

**Q.** What about the MIC80 (Fonsecaea pedrosoi) of the same compound?
**A.** ≤ 0.125 µg/mL

**Q.** What about the MIC80 (Aspergillus fumigatus) of the same compound?
**A.** ≤ 0.125 µg/mL

**Q.** And the MIC80 (Epidermophyton floccosum)?
**A.** < 0.0625 µg/mL

**Q.** What about the MIC80 (Candida tropicalis) of the same compound?
**A.** ≤ 0.125 µg/mL

**Q.** What about the MIC80 (Sporothrix schenckii) of the same compound?
**A.** 16 µg/mL (≈ 33 µM)

**Q.** And the MIC80 (Candida parapsilosis)?
**A.** 0.25 µg/mL (≈ 0.516 µM)

**Q.** What about the MIC80 (Cryptococcus neoformans) of the same compound?
**A.** ≤ 0.125 µg/mL

**Q.** What about the MIC80 (Nannizzia gypsea) of the same compound?
**A.** < 0.0625 µg/mL

**Q.** What about the MIC80 (Microsporum) of the same compound?
**A.** < 0.0625 µg/mL

**Q.** And the MIC80 (Trichophyton benhamiae)?
**A.** < 0.0625 µg/mL

**Q.** What does the source list for `CN(Cc1ccc(Cl)c(Cl)c1)CC(O)(Cn1cncn1)c1ccc(F)cc1F` (stereo not given)?
**A.** MIC80 (Candida albicans): 0.016 µg/mL (≈ 0.0374 µM); MIC80 (Trichophyton rubrum): ≤ 0.125 µg/mL; MIC80 (Trichophyton violaceum): 4 µg/mL (≈ 9.36 µM); MIC80 (Fonsecaea pedrosoi): ≤ 0.125 µg/mL; MIC80 (Aspergillus fumigatus): 4 µg/mL (≈ 9.36 µM); MIC80 (Epidermophyton floccosum): < 0.0625 µg/mL; MIC80 (Candida tropicalis): ≤ 0.125 µg/mL; MIC80 (Sporothrix schenckii): 32 µg/mL (≈ 74.9 µM); MIC80 (Candida parapsilosis): 1 µg/mL (≈ 2.34 µM); MIC80 (Cryptococcus neoformans): ≤ 0.125 µg/mL; MIC80 (Nannizzia gypsea): 16 µg/mL (≈ 37.4 µM); MIC80 (Microsporum): 8 µg/mL (≈ 18.7 µM); MIC80 (Trichophyton benhamiae): < 0.0625 µg/mL

**Q.** How did the MIC80 (Candida albicans) turn out when `CN(Cc1ccccc1F)CC(O)(Cn1cncn1)c1ccc(F)cc1F` (stereo not given) was run?
**A.** 0.5 µg/mL (≈ 1.33 µM)

**Q.** And the MIC80 (Trichophyton rubrum)?
**A.** 32 µg/mL (≈ 85 µM)

**Q.** And the MIC80 (Trichophyton violaceum)?
**A.** 2 µg/mL (≈ 5.31 µM)

**Q.** What about the MIC80 (Fonsecaea pedrosoi) of the same compound?
**A.** 1 µg/mL (≈ 2.66 µM)

**Q.** What about the MIC80 (Aspergillus fumigatus) of the same compound?
**A.** 8 µg/mL (≈ 21.3 µM)

**Q.** What about the MIC80 (Epidermophyton floccosum) of the same compound?
**A.** < 0.0625 µg/mL

**Q.** What about the MIC80 (Candida tropicalis) of the same compound?
**A.** 0.25 µg/mL (≈ 0.664 µM)

**Q.** What about the MIC80 (Sporothrix schenckii) of the same compound?
**A.** 64 µg/mL (≈ 170 µM)

**Q.** What about the MIC80 (Candida parapsilosis) of the same compound?
**A.** ≤ 0.125 µg/mL

**Q.** And the MIC80 (Cryptococcus neoformans)?
**A.** 0.5 µg/mL (≈ 1.33 µM)

**Q.** What about the MIC80 (Nannizzia gypsea) of the same compound?
**A.** 8 µg/mL (≈ 21.3 µM)

**Q.** And the MIC80 (Microsporum)?
**A.** 0.5 µg/mL (≈ 1.33 µM)

**Q.** What about the MIC80 (Trichophyton benhamiae) of the same compound?
**A.** < 0.0625 µg/mL

**Q.** Which MIC80 (Candida albicans) does the source give for `OC(Cn1cncn1)(Cn1cncn1)c1ccc(F)cc1F` [FLUCONAZOLE] here?
**A.** 0.25 µg/mL (≈ 0.816 µM)

**Q.** What about the MIC80 (Trichophyton rubrum) of the same compound?
**A.** 8 µg/mL (≈ 26.1 µM)

**Q.** What about the MIC80 (Trichophyton violaceum) of the same compound?
**A.** 32 µg/mL (≈ 104 µM)

**Q.** What about the MIC80 (Fonsecaea pedrosoi) of the same compound?
**A.** 64 µg/mL (≈ 209 µM)

**Q.** What about the MIC80 (Aspergillus fumigatus) of the same compound?
**A.** 32 µg/mL (≈ 104 µM)

**Q.** What about the MIC80 (Epidermophyton floccosum) of the same compound?
**A.** > 32 µg/mL

**Q.** And the MIC80 (Candida tropicalis)?
**A.** 0.5 µg/mL (≈ 1.63 µM)

**Q.** What about the MIC80 (Sporothrix schenckii) of the same compound?
**A.** > 64 µg/mL

**Q.** What about the MIC80 (Candida parapsilosis) of the same compound?
**A.** 0.5 µg/mL (≈ 1.63 µM)

**Q.** And the MIC80 (Cryptococcus neoformans)?
**A.** 16 µg/mL (≈ 52.2 µM)

**Q.** And the MIC80 (Nannizzia gypsea)?
**A.** 8 µg/mL (≈ 26.1 µM)

**Q.** And the MIC80 (Microsporum)?
**A.** > 32 µg/mL

**Q.** What about the MIC80 (Trichophyton benhamiae) of the same compound?
**A.** > 32 µg/mL

**Q.** For `CN(Cc1ccccc1Cl)CC(O)(Cn1cncn1)c1ccc(F)cc1F` (stereo not given), which MIC80 (Candida albicans) is on record?
**A.** 0.032 µg/mL (≈ 0.0815 µM)

**Q.** What about the MIC80 (Trichophyton rubrum) of the same compound?
**A.** ≤ 0.125 µg/mL

**Q.** And the MIC80 (Trichophyton violaceum)?
**A.** 0.5 µg/mL (≈ 1.27 µM)

**Q.** And the MIC80 (Fonsecaea pedrosoi)?
**A.** 0.25 µg/mL (≈ 0.636 µM)

**Q.** What about the MIC80 (Aspergillus fumigatus) of the same compound?
**A.** 8 µg/mL (≈ 20.4 µM)

**Q.** And the MIC80 (Epidermophyton floccosum)?
**A.** < 0.0625 µg/mL

**Q.** And the MIC80 (Candida tropicalis)?
**A.** ≤ 0.125 µg/mL

**Q.** And the MIC80 (Sporothrix schenckii)?
**A.** 32 µg/mL (≈ 81.5 µM)

**Q.** What about the MIC80 (Candida parapsilosis) of the same compound?
**A.** 0.25 µg/mL (≈ 0.636 µM)

**Q.** What about the MIC80 (Cryptococcus neoformans) of the same compound?
**A.** ≤ 0.125 µg/mL

**Q.** What about the MIC80 (Nannizzia gypsea) of the same compound?
**A.** 4 µg/mL (≈ 10.2 µM)

**Q.** What about the MIC80 (Microsporum) of the same compound?
**A.** 0.25 µg/mL (≈ 0.636 µM)

**Q.** And the MIC80 (Trichophyton benhamiae)?
**A.** < 0.0625 µg/mL
